According to patent US11001569B2, “6-membered heteroaromatic substituted cyanoindoline derivatives as NIK inhibitors” (Janssen Pharmaceutica NV, priority 2016, dated 2021):

Assays:
[1] = tested on: KMS12-BM (NIK WT) multiple myeloma cells; assay: Antiproliferative activity on KMS12-BM multiple myeloma cells (CellTiter-Glo); type: cell-based, human; details: Homo sapiens, KMS-12-BM, 96 h, 96 hr treatment, averaged values, read-out: KMS-12 Proliferation inhibition (IC50 (nM))
Description: (§1) Determination of Antiproliferative Activity on JJN-3 (NIK Translocated) and KMS12-BM (NIK WT) Multiple Myeloma Cells
(§2) All compounds tested were dissolved in DMSO and further dilutions were made in culture medium. Final DMSO concentration was 0.3% (v/v) in cell proliferation assays. Viability was assessed using CellTiter-Glo cell viability assay kit (Promega). […] Cells were routinely kept as suspension cells at 37° C. in a humidified 5% CO2 atmosphere. Cells were passaged at a seeding density of 0.2×10^6/ml twice a week. Cells were seeded in black tissue culture treated 96-well plates (Perkin Elmer). Densities used for plating ranged from 15000 (JJN3) to 20000 (KMS12BM) cells per well in a total volume of 135 μl medium. Drugs and/or solvents were added (15 μl) to a final volume of 150 μl. Following 96 hr of treatment, plates were removed from the incubator and allowed to equilibrate to room temperature for approx 10 min. 75 μl CellTiter-Glo reagent was added to each well that was then covered (Perkin Elmer Topseal) and shaken on plate shaker for 10 min. Luminescence was measured on a HTS Topcount (Perkin Elmer). […] For initial screening purposes, compounds were tested using a 9 point dilution curve (serial 1:3 dilutions). For each experiment, controls (containing no drug) and a blank incubation (containing cells read at the time of compound addition) were run in parallel. The blank value was subtracted from all control and sample values. For each sample, the mean value for cell growth (in relative light units) was expressed as a percentage of the mean value for cell growth of the control.

[2] = biological target: recombinant human NF-kappaB-inducing Kinase (NIK/MAP3K14) (Homo sapiens, UniProt Q99558); assay: Inhibition of auto-phosphorylation of recombinant human NIK/MAP3K14 activity (AlphaScreen); type: biochemical; details: 25 microM ATP, averaged over all measurements on all batches
Sequence of recombinant human NF-kappaB-inducing Kinase (NIK/MAP3K14) (Q99558 whole entry): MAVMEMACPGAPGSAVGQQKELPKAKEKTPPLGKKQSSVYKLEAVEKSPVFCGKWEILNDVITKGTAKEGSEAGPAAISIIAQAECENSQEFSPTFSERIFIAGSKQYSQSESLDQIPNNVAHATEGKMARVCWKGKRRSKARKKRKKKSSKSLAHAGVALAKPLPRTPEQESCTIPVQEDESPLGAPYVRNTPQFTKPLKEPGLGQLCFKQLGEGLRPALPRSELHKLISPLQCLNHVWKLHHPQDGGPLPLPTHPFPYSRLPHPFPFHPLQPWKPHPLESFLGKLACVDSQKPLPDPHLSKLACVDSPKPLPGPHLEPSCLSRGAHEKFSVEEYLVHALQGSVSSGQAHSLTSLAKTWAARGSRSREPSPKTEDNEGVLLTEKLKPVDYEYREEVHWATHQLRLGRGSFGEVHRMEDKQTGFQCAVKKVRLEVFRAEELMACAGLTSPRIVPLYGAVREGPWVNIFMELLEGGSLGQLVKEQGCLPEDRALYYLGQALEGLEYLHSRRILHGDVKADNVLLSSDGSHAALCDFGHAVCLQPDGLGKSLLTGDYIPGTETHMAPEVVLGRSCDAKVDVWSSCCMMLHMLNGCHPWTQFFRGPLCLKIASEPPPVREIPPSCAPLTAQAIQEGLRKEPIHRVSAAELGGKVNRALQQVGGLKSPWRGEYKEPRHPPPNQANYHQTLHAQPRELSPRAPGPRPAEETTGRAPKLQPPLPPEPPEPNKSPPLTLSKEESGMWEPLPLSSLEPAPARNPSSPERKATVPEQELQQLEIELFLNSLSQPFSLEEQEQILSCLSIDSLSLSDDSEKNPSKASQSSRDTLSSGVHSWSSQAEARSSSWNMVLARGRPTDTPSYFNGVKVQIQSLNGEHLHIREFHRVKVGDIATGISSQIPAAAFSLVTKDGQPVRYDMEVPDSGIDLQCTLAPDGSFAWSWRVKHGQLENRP
Description: Pharmacological Part Biological assay A Inhibition of auto-phosphorylation of recombinant human NF-kappaB-inducing Kinase (NIK/MAP3K14) Activity (AlphaScreen®)
NIK/MAP3K14 auto-phosphorylation activity was measured using the AlphaScreen® (αscreen) format (Perkin Elmer). All compounds tested were dissolved in dimethyl sulfoxide (DMSO) and further dilutions were made in assay buffer. Final DMSO concentration was 1% (v/v) in assays. Assay buffer was 50 mM Tris pH 7.5 containing 1 mM EGTA (ethylene glycol tetraacetic acid), 1 mM DTT (dithiothreitol), 0.1 mM Na3VO4, 5 mM MgCl2, 0.01% Tween® 20. Assays were carried out in 384 well Alphaplates (Perkin Elmer). […] Incubations were initiated by addition of GST-tagged NIK/MAP3K14 enzyme, carried out for 1 h at 25° C. and terminated by addition of stop buffer containing anti-phospho-IKK Ser176/180 antibody. Protein A Acceptor and Glutathione-Donor beads were added before reading using an EnVision® Multilabel Plate Reader (Perkin Elmer). Signal obtained in the wells containing blank samples was subtracted from all other wells and IC50's were determined by fitting a sigmoidal curve to % inhibition of control versus Log10 compound concentration.

[3] = tested on: JJN-3 (NIK translocated) multiple myeloma cells; assay: Antiproliferative activity on JJN-3 multiple myeloma cells (CellTiter-Glo); type: cell-based, human; details: Homo sapiens, JJN-3, 96 h, JJN-3 (NIK translocated) cells, 96 hr treatment, averaged values, read-out: JJN-3 Proliferation inhibition (IC50 (nM))
Description: as §1, §2

IC50 [1] [nM] | IC50 [2] [nM] | melting point [°C] | IC50 [3] [nM] | Structure (SMILES)
3800 | 16.6 | 143 | 550 | CCCCOc1ncccc1Nc1nccc(-c2cc(C#N)c3c(c2)[C@@](C)(CO)CN3)n1 [Compound 40]
> 10000 | 6.2 | 154 | 347 | C[C@]1(CO)CNc2c(C#N)cc(-c3ccnc(Nc4cccnc4OC[C@@H]4CCCO4)n3)cc21 [Compound 42]
> 10000 | 4 | 141 | 115 | C[C@]1(CO)CNc2c(C#N)cc(-c3ccnc(Nc4cccnc4OC[C@H]4CCCO4)n3)cc21 [Compound 43]
> 10000 | 9.3 | 217 | 81 | COc1nc(C2CCOCC2)ccc1Nc1nccc(-c2cc(C#N)c3c(c2)[C@@](C)(CO)CN3)n1 [Compound 44]
> 10000 | 9.1 | 138 | 195 | C[C@]1(CO)CNc2c(C#N)cc(-c3ccnc(Nc4cccnc4OCC4CC4)n3)cc21 [Compound 45]
> 10000 | 13.2 | 215 | 1120 | COCCOc1ccncc1Nc1nccc(-c2cc(C#N)c3c(c2)[C@@](C)(CO)CN3)n1 [Compound 47]
> 10000 | 95.5 | 190 | 3470 | COCCOc1nc(C(F)(F)F)ccc1Nc1nccc(-c2cc(C#N)c3c(c2)[C@@](C)(CO)CN3)n1 [Compound 53]
> 10000 | 29.5 | 117 | 977 | COCCOc1nc(C2CC2)ccc1Nc1nccc(-c2cc(C#N)c3c(c2)[C@@](C)(CO)CN3)n1 [Compound 62]
2460 | 2.2 | > 250 | 204 | COc1ncccc1Nc1ncc(F)c(-c2cc(C#N)c3c(c2)C(C)(CO)CN3)n1 (stereo not drawn) [Compound 101]
> 10000 | 6.5 | > 250 | 1580 | COc1ncc(Cl)cc1Nc1ncc(F)c(-c2cc(C#N)c3c(c2)C(C)(CO)CN3)n1 (stereo not drawn) [Compound 102]
1580 | 1 | > 250 | 120 | COc1ncccc1Nc1ncc(F)c(-c2cc(C#N)c3c(c2)[C@@](C)(CO)CN3)n1 [Compound 103]
> 10000 | 11.2 | > 250 | 112 | COc1ncc(Cl)cc1Nc1ncc(F)c(-c2cc(C#N)c3c(c2)[C@@](C)(CO)CN3)n1 [Compound 104]
~3720 | 30.9 | 284 | 2240 | CC1(CO)CNc2c(C#N)cc(-c3nc(Nc4cc(Cl)cnc4OC4CCOCC4)ncc3F)cc21 (stereo not drawn) [Compound 105]
2630 | 3.4 | > 250 | 275 | COCCOc1ncccc1Nc1ncc(F)c(-c2cc(C#N)c3c(c2)[C@@](C)(CO)CN3)n1 [Compound 106]
562 | 4.8 | 226 | 309 | CC1(CO)CNc2c(C#N)cc(-c3nc(Nc4cccnc4OC4CCOCC4)ncc3F)cc21 (stereo not drawn) [Compound 107]
~3980 | 25.1 | 173 | 2140 | CNCC1(C)CNc2c(C#N)cc(-c3ccnc(Nc4cccnc4OC)n3)cc21 (stereo not drawn) [Compound 108]
> 10000 | 38 | 171 | 794 | COc1ncc(Cl)cc1Nc1nccc(-c2cc(C#N)c3c(c2)[C@](C)(COC(=O)[C@H](C)N)CN3)n1 [Compound 109]
> 10000 | 33.9 | 116 | 1860 | COc1ncccc1Nc1nccc(-c2cc(C#N)c3c(c2)C(C)(CNC2CC2)CN3)n1 (stereo not drawn) [Compound 110]
